Experimental data from US20260226402A1, “IMPROVED MICROBIAL GROWTH MEDIA” (Becton, Dickinson and Company, priority 2023, published 2026).

What was measured:
[1] = system: yeast and other microorganisms
Description: (§1) TTD testing was performed using 28 organisms with a target CFU of 10-100 in blood volumes of 0 or 0.5 mL, organism dependent, 3 mL, and 10 mL. The organisms tested are illustrated in FIG. 20. Four different concentrations of iron provided as ferric ammonium citrate (0 g/L, 0.01 g/L, 0.035 g/L, and 0.06 g/L) in the media otherwise as described in Example 1, and three different concentrations of oxygen (47%, 54%, and 60%) were tested. FIG. 21 illustrates the combination of conditions tested. The testing was run in replicates of three. Prior to the day of testing, the bottles were racked and labeled, and the organisms were sub-cultured accordingly. Each organism to be tested was grown overnight on an appropriate plated medium. Each organism was carefully checked for purity. […] The organism is then re-cultured. 0.1 mL of the final organism dilution was dispensed and spread on the appropriate agar for plate counts. Using aseptic technique, each bottle containing 30 ml of microbial growth media was amended with 0, 0.5, 3, or 10 mL of bagged human blood using the appropriate syringe and needle. Paired sets were inoculated with blood from the same donor unit at the same time. The bottles were then inoculated with 0.1 mL of the appropriate organism. After inoculation, the bottles were loaded onto a BACTEC FX instrument using a standard protocol length of 120 hours. Paired bottles were entered into the FX at the same time in adjacent positions. […] The data from each experiment was organized for statistical testing via a general linear model analysis of variance (ANOVA). Blood volumes of 0 or 0.5, 3, and 10 mL were recoded as 0, 3, and 10 mL to help balance the design. Additional models were assessed holding the blood volume constant. FIG. 56 illustrates the results of the ANOVA analyzing the effects of the tested conditions on TTD. FIG. 57 illustrates the results of the ANOVA parameter estimates and prediction equation. There was an expectation that only the yeast category would show a significant effect with the iron addition. Other categories were monitored to ensure no adverse effects.

Candida albicans = assay: TTD testing with varied iron and O2 (Example 2); assay type: cell-based
Description: as §1

Candida glabrata = assay: TTD testing with varied iron and O2 (Example 2); assay type: cell-based
Description: as §1

[2] = iron 0, 0.01, 0.035, 0.06 g/L tested

Compound	optimal gaseous headspace O2 concentration for TTD [1]	effect on TTD of increasing oxygen concentration in headspace gas ([1]; from 47% to 60% O2)	optimal gaseous headspace O2 concentration for TTD (Candida albicans; 47%, 54%, 60% O2 tested)	effect on TTD of increasing oxygen concentration in headspace gas (Candida albicans; from 47% to 60% O2)	optimal gaseous headspace O2 concentration for TTD (Candida glabrata; 47%, 54%, 60% O2 tested)	effect on TTD of increasing oxygen concentration in headspace gas (Candida glabrata; from 47% to 60% O2)	optimal iron concentration for TTD [1, 2]	effect on TTD of increasing iron concentration in the media ([1]; iron from 0 to 0.06 g/L, blood 0/0.5, 3, 10 mL)	effect of iron on TTD, ANOVA result ([1]; yeast category, general linear model ANOVA)	optimal iron concentration for TTD (Candida albicans; [2])	effect on TTD of increasing iron concentration in the media (Candida albicans; iron from 0 to 0.06 g/L)	optimal iron concentration for TTD (Candida glabrata; [2])	effect on TTD of increasing iron concentration in the media (Candida glabrata; iron from 0 to 0.06 g/L)
O=O [oxygen]	about 54%	decreased the TTD	about 54%	decreased the TTD	about 54%	decreased the TTD	–	–	–	–	–	–	–
ferric ammonium citrate [iron]	–	–	–	–	–	–	about 0.035 g/L	decreased the TTD	lowers the TTD of yeasts	about 0.035 g/L	decreased the TTD	about 0.035 g/L	decreased the TTD
